According to PubChem BioAssay (NCI):
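Tested at 5 concentrations; 48 h exposure; 96-well plates; endpoints linearly interpolated, else capped at highest concentration. GI50 marks 50% less growth. TGI: total growth inhibition.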

Columns and labels:
Assay in all cases: growth of human tumour cells (NCI), 48 h
ACHN renal = system: ACHN renal
A498 renal = system: A498 renal
KM12 colon = system: KM12 colon
SF-295 CNS = system: SF-295 CNS
SK-MEL-2 melanoma = system: SK-MEL-2 melanoma
SF-268 CNS = system: SF-268 CNS
UACC-62 melanoma = system: UACC-62 melanoma
K-562 leukemia = system: K-562 leukemia
SNB-75 CNS = system: SNB-75 CNS
EKVX NSCLC = system: EKVX NSCLC

Row | SMILES | GI50 (ACHN renal) | TGI (ACHN renal) | GI50 (A498 renal) | TGI (A498 renal) | GI50 (KM12 colon) | TGI (KM12 colon) | GI50 (SF-295 CNS) | TGI (SF-295 CNS) | GI50 (SK-MEL-2 melanoma) | TGI (SK-MEL-2 melanoma) | GI50 (SF-268 CNS) | TGI (SF-268 CNS) | GI50 (UACC-62 melanoma) | TGI (UACC-62 melanoma) | GI50 (K-562 leukemia) | TGI (K-562 leukemia) | GI50 (SNB-75 CNS) | TGI (SNB-75 CNS) | TGI (EKVX NSCLC) | GI50 (EKVX NSCLC)
1 | COc1ccc(-c2[nH]c3ccc(OC)cc3c2C=C(C#N)C#N)cc1 | > 100 µM | > 100 µM | 0.075 µM | 3.97 µM | 0.52 µM | > 100 µM | 0.306 µM | > 100 µM | 5.85 µM | > 100 µM | 1.67 µM | > 100 µM | 0.355 µM | > 100 µM | 0.343 µM | > 100 µM | 0.551 µM | 97.7 µM | – | –
2 | CNCc1ccc(-c2cc(-c3nc(-c4ccc(S(=O)(=O)C(C)C)cc4)cnc3N)on2)cc1 | 0.115 µM | 10.9 µM | – | 2.03 µM | 1.87 µM | 12.6 µM | 4.5 µM | 22.9 µM | 2 µM | 16.4 µM | 1.41 µM | 3.29 µM | 4.77 µM | 26.6 µM | 1.05 µM | 3.61 µM | 11.4 µM | 26.4 µM | – | –
3 | CC(=O)OCC(=O)[C@@]1(O)CC[C@H]2[C@@H]3C[C@H](C)C4=CC(=O)C=C[C@]4(C)[C@@]3(F)[C@@H](O)C[C@@]21C | – | > 100 µM | – | – | – | > 100 µM | – | > 100 µM | – | > 100 µM | – | > 100 µM | – | > 100 µM | – | > 100 µM | – | > 100 µM | > 100 µM | –
4 | C#Cc1ccc(-n2c(/C=C/c3ccc(O)cc3)nc3ncccc3c2=O)cc1 | 6.31 µM | > 100 µM | 2.48 µM | 6.88 µM | 3.81 µM | 60.3 µM | – | – | 3.95 µM | 40.7 µM | 5.24 µM | 68 µM | 4.01 µM | > 100 µM | 4.33 µM | > 100 µM | 0.948 µM | 32.5 µM | – | –
5 | S=C1SCN(Cc2ccccc2)CN1Cc1ccco1 | 4.97 µM | 17.3 µM | 21.6 µM | 69.7 µM | 1.52 µM | 10.6 µM | > 100 µM | > 100 µM | 3.04 µM | 11.9 µM | 3.59 µM | 17.1 µM | 4.75 µM | 18.7 µM | 3.62 µM | > 100 µM | 4.09 µM | 21.9 µM | – | –
6 | CC12OC(=O)C(C#N)C1(C)C1C(=O)CCCC12 (stereo not drawn) | – | > 100 µM | – | – | – | > 100 µM | – | > 100 µM | – | > 100 µM | – | > 100 µM | – | > 100 µM | – | > 100 µM | – | > 100 µM | > 100 µM | –
7 | COCCN(Cc1ccc(F)cc1)c1ccc(CO)c(Cl)c1 | 39.9 µM | > 100 µM | 0.048 µM | 0.193 µM | 33.8 µM | > 100 µM | 3.83 µM | > 100 µM | 20.6 µM | 59.5 µM | 50.6 µM | > 100 µM | 0.653 µM | 4.28 µM | 10 µM | > 100 µM | 16.6 µM | > 87.4 µM | – | –
8 | CC(=O)[CH-]C(=O)c1ccccc1.[C-]#[O+].[C-]#[O+].[Ir] | – | – | – | – | > 10 µM | > 10 µM | > 100 µM | > 100 µM | > 100 µM | > 100 µM | – | – | > 100 µM | > 100 µM | – | – | > 100 µM | > 100 µM | > 100 µM | > 100 µM
9 | O=[N+]([O-])c1ccc(-c2ccc(C3=Nn4c(CNc5ccccc5Cl)nnc4SC3)o2)cc1 | – | > 100 µM | – | – | – | > 100 µM | – | > 100 µM | – | > 100 µM | – | > 100 µM | – | > 100 µM | – | > 100 µM | – | > 100 µM | – | –
10 | C(=Nc1nc(SCc2ccccc2)nc2[nH]ncc12)c1cccs1 | 43.6 µM | > 100 µM | – | – | 36.7 µM | > 100 µM | > 100 µM | > 100 µM | 77.4 µM | > 100 µM | 30.4 µM | > 100 µM | 25.4 µM | 61.8 µM | 35 µM | > 100 µM | > 100 µM | > 100 µM | > 100 µM | 34.5 µM
11 | COc1ccc(Nc2cnc3cc(N)cc(N)c3n2)cc1 | – | – | 16.9 µM | 59.1 µM | 18.4 µM | 36.2 µM | 22.3 µM | 48.7 µM | 14.4 µM | 32 µM | 17.7 µM | 39.8 µM | 14.6 µM | 28.8 µM | 5.69 µM | > 100 µM | – | – | 42.6 µM | 22 µM
12 | OC(c1ccccc1Br)(c1ccccc1Br)C(F)(F)F | – | 38.3 µM | – | 51.9 µM | – | 30.9 µM | – | 38.9 µM | – | 35.5 µM | – | 43 µM | – | 57.7 µM | – | – | – | 85.2 µM | > 100 µM | –
13 | CC(=O)Nc1ccc(C2CC(c3ccc([N+](=O)[O-])cc3)=Nc3ccccc3S2=O)cc1 (stereo not drawn) | – | 51.8 µM | – | – | – | 35.1 µM | – | 93.2 µM | – | > 100 µM | – | > 100 µM | – | 27.8 µM | – | 23.1 µM | – | > 100 µM | 97.5 µM | –
14 | OCC1CC[N-]CC1.OCC1CC[N-]CC1.[Cl][Pt+2]([Cl])([Cl])[Cl] | 38.8 µM | – | 95.3 µM | – | 28.9 µM | 77.3 µM | – | – | 27 µM | 67.3 µM | 40.5 µM | – | 29.4 µM | – | 35.9 µM | – | – | – | – | 30.7 µM
15 | O=C(CCCC(=O)Nc1ccc(Cl)cc1Cl)CC(=O)c1ccc2ccccc2c1 | – | > 100 µM | – | – | – | > 100 µM | – | > 100 µM | – | > 100 µM | – | > 100 µM | – | > 100 µM | – | > 100 µM | – | – | > 100 µM | –
16 | COc1ccc(-c2nc3ccc(Cc4ccc5nc(-c6ccc(OC)cc6)[nH]c5c4)cc3[nH]2)cc1 | 0.101 µM | 1.96 µM | 0.018 µM | 0.193 µM | < 0.01 µM | 0.163 µM | 0.0176 µM | 0.364 µM | 0.0404 µM | 1.75 µM | 0.0556 µM | 1.85 µM | 0.0471 µM | 2.19 µM | < 0.01 µM | 0.159 µM | 0.0259 µM | 1.23 µM | – | –
